Results reported in patent US20240199546A1, “INHIBITORS OF SOLUTE CARRIER FAMILY 6A MEMBER 19 (SLC6A19) AND METHODS OF USE THEREOF” (Maze Therapeutics, Inc., priority 2022, published 2024).

Target: T1, human SLC6A19 and TMEM27 (Homo sapiens, UniProt Q695T7)
T1 construct: expressed in transfected cells
T1 sequence (Q695T7 1-634): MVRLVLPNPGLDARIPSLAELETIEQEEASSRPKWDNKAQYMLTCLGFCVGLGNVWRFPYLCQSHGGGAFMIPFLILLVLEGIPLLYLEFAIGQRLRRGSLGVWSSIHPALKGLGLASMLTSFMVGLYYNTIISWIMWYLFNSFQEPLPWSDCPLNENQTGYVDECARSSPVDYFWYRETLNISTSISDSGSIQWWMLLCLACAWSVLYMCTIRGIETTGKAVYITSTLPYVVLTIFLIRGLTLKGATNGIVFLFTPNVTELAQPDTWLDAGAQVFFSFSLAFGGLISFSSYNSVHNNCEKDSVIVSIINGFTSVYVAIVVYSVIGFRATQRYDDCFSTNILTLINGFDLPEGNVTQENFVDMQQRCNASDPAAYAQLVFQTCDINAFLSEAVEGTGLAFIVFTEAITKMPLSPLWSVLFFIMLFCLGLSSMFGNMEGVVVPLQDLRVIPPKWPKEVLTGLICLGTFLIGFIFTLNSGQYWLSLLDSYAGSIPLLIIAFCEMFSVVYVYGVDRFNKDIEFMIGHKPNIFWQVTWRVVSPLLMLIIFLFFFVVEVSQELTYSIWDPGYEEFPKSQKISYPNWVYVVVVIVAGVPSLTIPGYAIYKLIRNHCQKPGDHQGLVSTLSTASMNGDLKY
T1 sequence (Q9HBJ8 15-222 partner): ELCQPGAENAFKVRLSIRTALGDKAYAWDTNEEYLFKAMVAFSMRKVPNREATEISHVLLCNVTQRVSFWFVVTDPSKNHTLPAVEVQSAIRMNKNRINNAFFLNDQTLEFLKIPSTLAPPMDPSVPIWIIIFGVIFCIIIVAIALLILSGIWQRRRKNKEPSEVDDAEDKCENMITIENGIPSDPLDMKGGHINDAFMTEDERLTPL
Test: Radiolabelled (3H) leucine uptake in CHO cells with doxycycline-inducible expression of human SLC6A19 and TMEM27 (Example B-1)
Type: cell-based
Settings: CHO cells with doxycycline-inducible expression of human SLC6A19 and TMEM27, read-out: SLC6A19_Radioligand Uptake Assay IC50
Method in brief: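 CHO cells were induced with doxycycline for 18 h at 37 °C, washed in HBSS, then exposed to compounds for 1 h: 8-point, 3-fold dilutions in duplicate, 0.5% DMSO final. Uptake measured by scintillation counting after 2 h shaking. Activity normalized with positive control as 0% and DMSO as 100%.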

| IC50 [nM] | Compound |
| --- | --- |
| 161 | O=C(NCc1cc2cc(F)c(OCc3cocn3)cc2[nH]1)C1CC1 [Compound 428, N-((5-fluoro-6-(oxazol-4-ylmethoxy)-1H-indol-2-yl)methyl)cyclopropanecarboxamide] |
| 215 | O=C(NCc1cc2cc(Cl)c(OCc3cocn3)cc2[nH]1)C1CC1 [Compound 429, N-((5-chloro-6-(oxazol-4-ylmethoxy)-1H-indol-2-yl)methyl)cyclopropanecarboxamide] |
| 263 | CC1(C(=O)NCc2cc3cc(OC(F)(F)F)c(OCc4cscn4)cc3[nH]2)CC1 [Compound 434, 1-methyl-N-((6-(thiazol-4-ylmethoxy)-5-(trifluoromethoxy)-1H-indol-2-yl)methyl)cyclopropane-1-carboxamide] |
| 133 | CC(F)(F)C(=O)NCc1cc2cc(Cl)c(OCc3cscn3)cc2[nH]1 [Compound 435, N-((5-chloro-6-(thiazol-4-ylmethoxy)-1H-indol-2-yl)methyl)-2,2-difluoropropanamide] |
| 97 | CC(F)(F)C(=O)NCc1cc2cc(F)c(OCc3cscn3)cc2[nH]1 [Compound 436, 2,2-difluoro-N-((5-fluoro-6-(thiazol-4-ylmethoxy)-1H-indol-2-yl)methyl)propanamide] |
| 382 | N#CCC(=O)NCc1cc2cc(Cl)c(OCc3cscn3)cc2[nH]1 [Compound 437, N-((5-chloro-6-(thiazol-4-ylmethoxy)-1H-indol-2-yl)methyl)-2-cyanoacetamide] |
| 327 | CC1(C(=O)NCc2cc3cc(OC(F)(F)F)c(OCc4cocn4)cc3[nH]2)CC1 [Compound 439, 1-methyl-N-((6-(oxazol-4-ylmethoxy)-5-(trifluoromethoxy)-1H-indol-2-yl)methyl)cyclopropane-1-carboxamide] |
| 111 | Cc1cc(COc2cc3[nH]c(CNC(=O)C(C)(F)F)cc3cc2Cl)on1 [Compound 440, N-((5-chloro-6-((3-methylisoxazol-5-yl)methoxy)-1H-indol-2-yl)methyl)-2,2-difluoropropanamide] |
| 95.6 | Cc1cc(COc2cc3[nH]c(CNC(=O)C(C)(F)F)cc3cc2F)on1 [Compound 441, 2,2-difluoro-N-((5-fluoro-6-((3-methylisoxazol-5-yl)methoxy)-1H-indol-2-yl)methyl)propanamide] |
| 2750 | Cc1cc(COc2cc3[nH]c(CNC(=O)[C@@H]4CCN4)cc3cc2Cl)on1 [Compound 448, (S)-N-((5-chloro-6-((3-methylisoxazol-5-yl)methoxy)-1H-indol-2-yl)methyl)azetidine-2-carboxamide] |
| 187 | Cc1cc(COc2cc3[nH]c(CNC(=O)CC4CC4)cc3cc2Cl)on1 [Compound 449, N-((5-chloro-6-((3-methylisoxazol-5-yl)methoxy)-1H-indol-2-yl)methyl)-2-cyclopropylacetamide] |

Second part, the molecule before the results:

| Compound | IC50 [nM] |
| --- | --- |
| Cc1cc(COc2cc3[nH]c(CNC(=O)N4CCC45COC5)cc3cc2Cl)on1 [Compound 378, N-((5-chloro-6-((3-methylisoxazol-5-yl)methoxy)-1H-indol-2-yl)methyl)-6-oxa-1-azaspiro[3.3]heptane-1-carboxamide] | 5510 |
| COCCNC(=O)NCc1cc2cc(Cl)c(OCc3cscn3)cc2[nH]1 [Compound 380, 1-((5-chloro-6-(thiazol-4-ylmethoxy)-1H-indol-2-yl)methyl)-3-(2-methoxyethyl)urea] | 1130 |
| C[C@@H]1CCN(C(=O)NCc2cc3cc(F)c(OCc4ccon4)cc3[nH]2)C1 [Compound 381, (R)-N-((5-fluoro-6-(isoxazol-3-ylmethoxy)-1H-indol-2-yl)methyl)-3-methylpyrrolidine-1-carboxamide] | 339 |
| C[C@H]1CCN(C(=O)NCc2cc3cc(F)c(OCc4ccon4)cc3[nH]2)C1 [Compound 382, (S)-N-((5-fluoro-6-(isoxazol-3-ylmethoxy)-1H-indol-2-yl)methyl)-3-methylpyrrolidine-1-carboxamide] | 420 |
| C[C@@H]1CCCN1C(=O)NCc1cc2cc(F)c(OCc3ccon3)cc2[nH]1 [Compound 383, (R)-N-((5-fluoro-6-(isoxazol-3-ylmethoxy)-1H-indol-2-yl)methyl)-2-methylpyrrolidine-1-carboxamide] | 178 |
| C[C@H]1CCCN1C(=O)NCc1cc2cc(F)c(OCc3ccon3)cc2[nH]1 [Compound 384, (S)-N-((5-fluoro-6-(isoxazol-3-ylmethoxy)-1H-indol-2-yl)methyl)-2-methylpyrrolidine-1-carboxamide] | 1570 |
| C[C@H]1CCCN1C(=O)NCc1cc2cc(F)c(OCc3cscn3)cc2[nH]1 [Compound 385, (S)-N-((5-fluoro-6-(thiazol-4-ylmethoxy)-1H-indol-2-yl)methyl)-2-methylpyrrolidine-1-carboxamide] | 549 |
| C[C@@H]1CCCN1C(=O)NCc1cc2cc(F)c(OCc3cscn3)cc2[nH]1 [Compound 386, (R)-N-((5-fluoro-6-(thiazol-4-ylmethoxy)-1H-indol-2-yl)methyl)-2-methylpyrrolidine-1-carboxamide] | 174 |
| C[C@@H]1CCN(C(=O)NCc2cc3cc(F)c(OCc4cscn4)cc3[nH]2)C1 [Compound 387, (R)-N-((5-fluoro-6-(thiazol-4-ylmethoxy)-1H-indol-2-yl)methyl)-3-methylpyrrolidine-1-carboxamide] | 209 |
| C[C@H]1CCN(C(=O)NCc2cc3cc(F)c(OCc4cscn4)cc3[nH]2)C1 [Compound 388, (S)-N-((5-fluoro-6-(thiazol-4-ylmethoxy)-1H-indol-2-yl)methyl)-3-methylpyrrolidine-1-carboxamide] | 336 |
| CSc1cc2cc(CNC(=O)C3(C)CC3)[nH]c2cc1OCc1ccon1 [Compound 391, N-((6-(isoxazol-3-ylmethoxy)-5-(methylthio)-1H-indol-2-yl)methyl)-1-methylcyclopropane-1-carboxamide] | 225 |
| CC1(C(=O)NCc2cc3cc(Cl)c(OCCC4CCC4)cc3[nH]2)CC1 [Compound 394, N-((5-chloro-6-(2-cyclobutylethoxy)-1H-indol-2-yl)methyl)-1-methylcyclopropane-1-carboxamide] | 676 |
| Cc1cc(COc2cc3[nH]c(CNC(=O)C4(C)CC4)cc3cc2Cl)sn1 [Compound 398, N-((5-chloro-6-((3-methylisothiazol-5-yl)methoxy)-1H-indol-2-yl)methyl)-1-methylcyclopropane-1-carboxamide] | 599 |
| Cc1cc(COc2cc3[nH]c(CNC(=O)C4(C)CC4)cc3cc2Cl)ns1 [Compound 399, N-((5-chloro-6-((5-methylisothiazol-3-yl)methoxy)-1H-indol-2-yl)methyl)-1-methylcyclopropane-1-carboxamide] | 429 |
| CC1(C(=O)NCc2cc3cc(Cl)c(OCc4ncsc4Cl)cc3[nH]2)CC1 [Compound 400, N-((5-chloro-6-((5-chlorothiazol-4-yl)methoxy)-1H-indol-2-yl)methyl)-1-methylcyclopropane-1-carboxamide] | 556 |
| O=C(NCc1cc2cc(OC(F)(F)F)c(OCc3ccon3)cc2[nH]1)N1CCC1 [Compound 416, N-((6-(isoxazol-3-ylmethoxy)-5-(trifluoromethoxy)-1H-indol-2-yl)methyl)azetidine-1-carboxamide] | 379 |
| O=C(NCc1cc2cc(OC(F)(F)F)c(OCc3cocn3)cc2[nH]1)N1CCCC1 [Compound 417, N-((6-(oxazol-4-ylmethoxy)-5-(trifluoromethoxy)-1H-indol-2-yl)methyl)pyrrolidine-1-carboxamide] | 394 |
| O=C(NCc1cc2cc(Cl)c(CCc3cscn3)cc2[nH]1)N1CCCC1 [Compound 418, N-((5-chloro-6-(2-(thiazol-4-yl)ethyl)-1H-indol-2-yl)methyl)pyrrolidine-1-carboxamide] | 163 |
| O=C(NCc1cc2cc(OC(F)(F)F)c(OCc3ccon3)cc2[nH]1)N1CCCC1 [Compound 420, N-((6-(isoxazol-3-ylmethoxy)-5-(trifluoromethoxy)-1H-indol-2-yl)methyl)pyrrolidine-1-carboxamide] | 355 |
| O=C(NCc1cc2c(F)cc(OCc3cscn3)cc2[nH]1)N1CCC1 [Compound 422, N-((4-fluoro-6-(thiazol-4-ylmethoxy)-1H-indol-2-yl)methyl)azetidine-1-carboxamide] | 337 |
| O=C(NCc1cc2c(F)cc(OCc3ccon3)cc2[nH]1)N1CCC1 [Compound 423, N-((4-fluoro-6-(isoxazol-3-ylmethoxy)-1H-indol-2-yl)methyl)azetidine-1-carboxamide] | 198 |
| Cc1cc(COc2cc(F)c3cc(CNC(=O)N4CCC4)[nH]c3c2)on1 [Compound 427, N-((4-fluoro-6-((3-methylisoxazol-5-yl)methoxy)-1H-indol-2-yl)methyl)azetidine-1-carboxamide] | 634 |
